Results on 20 molecules are retold here after patent publication US9365506B2, “Compounds and compositions as TLR2 agonists” (NOVARTIS AG, priority 2010, dated 2016).

The nature of series [1]: Evaluation of % alum binding at pH 6.5 (HPLC-MS/MS of supernatant). The class given is physicochemical. The following applies: 1 mg/mL formulation with aluminum hydroxide adjuvant in Histidine buffer, stirred at 25° C. overnight, control without aluminum hydroxide. How it is done:
Evaluation of % Alum Binding
The binding of certain compounds of Formula (I) to aluminum-containing adjuvants at pH 6.5 was evaluated using HPLC-MS/MS to monitor the presence of the compound of Formula (I) in the supernatant.
Evaluation of Binding at pH 6.5
To a mixture of compound (4 mg/mL) in Endotox free water was added 1 M NaOH (2.1 eq) to achieve a clear solution. A mixture of the resulting solution (0.5 mL), Endotox free water (0.86 mL), 100 mM Histidine buffer (0.2 mL) and aluminum hydroxide adjuvant (13.78 mg/mL, 0.44 mL) was stirred at 25° C. overnight to result in a 1 mg/mL formulation. An additional 1 mg/mL formulation was prepared as control in 10 mM Histidine buffer without aluminum hydroxide.
Three 50 uL aliquots of each formulation (in Histidine buffer with and without aluminum hydroxide) were centrifuged at 14,000 rpm for 10 minutes at 4° C. The supernatant was diluted, treated with an internal standard and analyzed by HPLC-MS/MS using a ballistic gradient (from 50% CH3CN-1.0% NH4OH to 95% CH3CN-1.0% NH4OH in 1.5 minutes) on a C8 ([…]×2.1 mm) Waters XBridge column at ambient temperature. The supernatant concentration was determined for each formulation. The fraction in the aluminum hydroxide formulation bound to alum was calculated as follows: […]

The target of another series is human TLR2 (Homo sapiens, UniProt O60603). In words: Reporter gene assay: HEK 293 cells stably transfected with human TLR2 and NF-kB-driven luciferase reporter. The following applies: for Emax: HEK293, 7 h, read-out: Hek-TLR2 (% Eff); for EC50: HEK 293 stably transfected with human TLR2 and pNifty-Luciferase, 7 hours incubation, concentration giving 50% of maximal signal; for Hek-TLR2 (% Eff): % Eff relative to Pam3CSK4, HEK 293 human TLR2 NF-kB luciferase. In general terms: Reporter assays use an easily measured gene product as a stand-in for the process of interest.
human TLR2, sequence (O60603 21-784): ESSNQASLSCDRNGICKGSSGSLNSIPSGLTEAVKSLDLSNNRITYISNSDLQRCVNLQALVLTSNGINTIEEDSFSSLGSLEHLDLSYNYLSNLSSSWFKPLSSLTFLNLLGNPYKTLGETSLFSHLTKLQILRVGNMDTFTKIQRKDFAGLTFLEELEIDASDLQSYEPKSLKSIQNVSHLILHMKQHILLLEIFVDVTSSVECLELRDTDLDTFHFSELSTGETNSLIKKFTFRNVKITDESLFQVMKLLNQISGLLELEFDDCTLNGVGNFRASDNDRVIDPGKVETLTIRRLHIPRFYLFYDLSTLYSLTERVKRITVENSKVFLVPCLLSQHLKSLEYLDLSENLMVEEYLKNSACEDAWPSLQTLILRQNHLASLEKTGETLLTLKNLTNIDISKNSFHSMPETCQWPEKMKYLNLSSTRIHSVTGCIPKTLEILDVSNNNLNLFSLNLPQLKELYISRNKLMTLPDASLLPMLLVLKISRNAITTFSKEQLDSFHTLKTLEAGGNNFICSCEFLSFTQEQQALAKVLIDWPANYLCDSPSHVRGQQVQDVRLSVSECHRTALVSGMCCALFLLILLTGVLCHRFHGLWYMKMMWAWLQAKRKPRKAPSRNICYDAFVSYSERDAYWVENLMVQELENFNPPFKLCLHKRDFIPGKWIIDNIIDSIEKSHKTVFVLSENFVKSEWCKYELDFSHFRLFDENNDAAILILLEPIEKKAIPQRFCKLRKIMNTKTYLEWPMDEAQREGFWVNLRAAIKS

Like-named read-outs stand apart in the source and are kept apart here. Some results are limits rather than exact numbers.

Description for human TLR2: As a control assay, normal Hek293 transfected with pNifty-Luc were used. […] Bright-Glo™ Luciferase assay buffer and substrate were supplied by Promega #E263B and #E264B (assay substrate and buffer respectively). 384 well clear-bottom plates were supplied by Greiner bio-one (#789163-G) and were custom bar-coded plates.
Cells were plated at 25,000 cells/well in 384-well plates in a final volume of 50 μl of media. Cells were allowed to adhere to the plates after overnight (18 hours) culture at 37° C. and 5% CO2. Serially diluted experimental and positive control compounds were then dispensed to each well and incubated for 7 hours at 37° C. and 5% CO2. Cells stimulated with DMSO alone also serve as negative controls. After the incubation, 30 μl of the pre-mix assay buffer and substrate buffer were added to each well according to manufacturer's instructions. The luminescence signal was read on a CLIPR machine with an integration time of 20 seconds per plate.

What is called EC50 is the concentration needed to bring the measured effect to its halfway point. As to `CCCCCCCCCCCC(=O)OC[C@H](CSC[C@H](N)C(=O)NCCOCCP(=O)(O)O)OC(=O)CCCCCCCCCCC` [Example 3, (8R,12R)-8-amino-12-(dodecanoyloxy)-7,15-dioxo-3,14-dioxa-10-thia-6-azahexacosylphosphonic acid], the “Alum Binding %” value in series [1] is more than 80%. On human TLR2, the Emax came out at 103%. Also, at human TLR2 (Hek-TLR2 μM (EC50)), the concentration giving a half-maximal response (EC50) came out at 119 nM.

Take `CCCCCCCCCCCC(=O)OC[C@H](CSC[C@H](N)C(=O)NCCOCCOCCP(=O)(O)O)OC(=O)CCCCCCCCCCC` [Example 5, (11R,15R)-11-amino-15-(dodecanoyloxy)-10,18-dioxo-3,6,17-trioxa-13-thia-9-azanonacosylphosphonic acid]: the “Alum Binding %” value in series [1] was more than 80%.

For the molecule `CCCCCCCCCCCC(=O)OC[C@H](CSC[C@H](N)C(=O)NC1(COCCCP(=O)(O)O)CC1)OC(=O)CCCCCCCCCCC` [Example 15, 3-((1-((R)-2-amino-3-((R)-2,3-bis(dodecanoyloxy)propylthio)propanamido)cyclopropyl)methoxy)propylphosphonic acid], the “Alum Binding %” value in series [1] is listed as more than 80%.

`CCCCCCCCCCCC(=O)OC[C@H](CSC[C@H](N)C(=O)NCCOCCOCCOCCP(=O)(O)O)OC(=O)CCCCCCCCCCC` [Example 18, (14R,18R)-14-amino-18-(dodecanoyloxy)-13,21-dioxo-3,6,9,20-tetraoxa-16-thia-12-azadotriacontylphosphonic acid]: the “Alum Binding %” value in series [1] is given as more than 80%. Moreover, on human TLR2, the Emax was 96%. At human TLR2 (Hek-TLR2 μM (EC50)), this molecule displayed an EC50 of 270 nM.

In the case of `CCCCCCCCCCCC(=O)OC[C@H](CSC[C@H](N)C(=O)NCCCC(F)(F)P(=O)(O)O)OC(=O)CCCCCCCCCCC` [Example 19, 4-((R)-2-amino-3-((R)-2,3-bis(dodecanoyloxy)propylthio)propanamido)-1,1-difluorobutylphosphonic acid], the “Alum Binding %” value in series [1] is listed as more than 80%.

As for `CCCCCCCCCCCCOC[C@H](CSC[C@H](N)C(=O)NCCOCCOCCOCCP(=O)(O)O)OCCCCCCCCCCCC` [Example 20, (14R,18R)-14-amino-18-(dodecyloxy)-13-oxo-3,6,9,20-tetraoxa-16-thia-12-azadotriacontylphosphonic acid], the “Alum Binding %” value in series [1] is reported as more than 80%. Moreover, the Emax on human TLR2 is 84%. Also, on human TLR2 (Hek-TLR2 μM (EC50)), a half-maximal response (EC50) required 552 nM.

`CCCCCCCCCCCCOC[C@H](CSC[C@H](N)C(=O)NCCOCCOCCOCCP(=O)(O)O)NC(=O)CCCCCCCCCCC` [Example 26, ((14R,18R)-14-amino-18-dodecanamido-13-oxo-3,6,9,20-tetraoxa-16-thia-12-azadotriacontyl)phosphonic acid]: the “Alum Binding %” value in series [1] is more than 80%. Also, on human TLR2, the Emax turned out to be 28%. Further, the EC50 on human TLR2 (Hek-TLR2 μM (EC50)) came out at 1750 nM.

Take `CCCCCCCCCCNC(=O)OC[C@H](CSC[C@H](NC(C)=O)C(=O)NCCOCCOCCOCCP(=O)(O)O)OC(=O)NCCCCCCCCCC` [Example 82, ((14R,18R)-14-acetamido-18-((decylcarbamoyl)oxy)-13,21-dioxo-3,6,9,20-tetraoxa-16-thia-12,22-diazadotriacontyl)phosphonic acid]: the Emax on human TLR2 worked out at 84%. In addition, at human TLR2 (Hek-TLR2 μM (EC50)), a half-maximal effect (EC50) was put at 830 nM.

Regarding `CCCCCCCCCCNC(=O)OC[C@H](CSC[C@H](N)C(=O)NCCOCCOCCOCCP(=O)(O)O)OC(=O)NCCCCCCCCCC` [Example 83, ((14R,18R)-14-amino-18-((decylcarbamoyl)oxy)-13,21-dioxo-3,6,9,20-tetraoxa-16-thia-12,22-diazadotriacontyl)phosphonic acid], the Emax at human TLR2 came out at 76%. Besides, the response on human TLR2 (Hek-TLR2 μM (EC50)) was half-maximal at 820 nM (EC50).

For the molecule `CCCCCCCCCCCC(=O)OC[C@H](CSC[C@H](N)C(=O)NCCCS(=O)(=O)O)OC(=O)CCCCCCCCCCC` [Example 84, 3-((R)-2-amino-3-(((R)-2,3-bis(dodecanoyloxy)propyl)thio)propanamido)propane-1-sulfonic acid], the Emax on human TLR2 was 72%. Moreover, the EC50 on human TLR2 (Hek-TLR2 μM (EC50)) was determined as 5560 nM.

For `CCCCCCCCCCNC(=O)OC[C@H](CSC[C@H](NC(=O)CCCCCC)C(=O)NCCOCCOCCOCCP(=O)(O)O)OC(=O)NCCCCCCCCCC` [Example 85, ((14R,18R)-18-((decylcarbamoyl)oxy)-14-heptanamido-13,21-dioxo-3,6,9,20-tetraoxa-16-thia-12,22-diazadotriacontyl)phosphonic acid], on human TLR2, the Emax worked out at 71%. The molecule further showed an EC50 at human TLR2 (Hek-TLR2 μM (EC50)) of 2170 nM.

As to `CCCCCCCCCCCC(=O)OC[C@H](CSC[C@H](N)C(=O)NCCOCCOCCOCCC(=O)O)OC(=O)CCCCCCCCCCC` [Example 86, (15R,19R)-15-amino-19-(dodecanoyloxy)-14,22-dioxo-4,7,10,21-tetraoxa-17-thia-13-azatritriacontan-1-oic acid], on human TLR2, the Emax stood at 84%. The EC50 at human TLR2 (Hek-TLR2 μM (EC50)) was 900 nM.

With `CCCCCCCCCCCCCCCC(=O)N[C@@H](CSC[C@@H](COC(=O)CCCCCCCCCCC)OC(=O)CCCCCCCCCCC)C(=O)NCCOCCOCCOCCC(=O)O` [Example 87, (15R,19R)-19-(dodecanoyloxy)-14,22-dioxo-15-palmitamido-4,7,10,21-tetraoxa-17-thia-13-azatritriacontan-1-oic acid], the Emax at human TLR2 came to 30%. This molecule also came in with a 50% effective concentration (EC50) at human TLR2 (Hek-TLR2 μM (EC50)) of 38000 nM.

Regarding `CCCCCCCCCCCC(=O)OC[C@H](CSC[C@H](N)C(=O)N[C@@H](CO)C(=O)NCCOCCOCCOCCC(=O)O)OC(=O)CCCCCCCCCCC` [Example 88, (15S,18R,22R)-18-amino-22-(dodecanoyloxy)-15-(hydroxymethyl)-14,17,25-trioxo-4,7,10,24-tetraoxa-20-thia-13,16-diazahexatriacontan-1-oic acid], on human TLR2, the Emax is 145%. Besides, the EC50 on human TLR2 (Hek-TLR2 μM (EC50)) was found to be 9.2 nM.

As for `CCCCCCCCCCCCCCCC(=O)N[C@@H](CSC[C@@H](COC(=O)CCCCCCCCCCC)OC(=O)CCCCCCCCCCC)C(=O)N[C@@H](CO)C(=O)NCCOCCOCCOCCC(=O)O` [Example 89, (15S,18R,22R)-22-(dodecanoyloxy)-15-(hydroxymethyl)-14,17,25-trioxo-18-palmitamido-4,7,10,24-tetraoxa-20-thia-13,16-diazahexatriacontan-1-oic acid], at human TLR2, the Emax came to 104%. The same molecule yielded a concentration for a half-maximal effect (EC50) on human TLR2 (Hek-TLR2 μM (EC50)) of 4940 nM.

Consider `CCCCCCCCCCCCOC[C@H](CSC[C@H](N)C(=O)NCCOCCOCCOCCP(=O)(O)O)OC(=O)NCCCCCCCCCC` [Example 90, ((14R,18R)-14-amino-18-((dodecyloxy)methyl)-13,20-dioxo-3,6,9,19-tetraoxa-16-thia-12,21-diazahentriacontyl)phosphonic acid], for which the Emax on human TLR2 amounted to 47%. This molecule returned an EC50 on human TLR2 (Hek-TLR2 μM (EC50)) of more than 100000 nM.

Consider `CCCCCCCCCCCC(=O)OC[C@H](CSC[C@H](N)C(=O)NCCOCCOS(=O)(=O)O)OC(=O)CCCCCCCCCCC` [Example 91, (R)-3-(((R)-2-amino-3-oxo-3-((2-(2-(sulfooxy)ethoxy)ethyl)amino)propyl)thio)propane-1,2-diyl didodecanoate], for which the Emax on human TLR2 was found to be 120%. The molecule also had an EC50 on human TLR2 (Hek-TLR2 μM (EC50)) of 61 nM.

In the case of `CCCCCCCCCCNC(=O)OC[C@H](CSC[C@H](NC(=O)CCCCC)C(=O)NCCOCCOCCOCCP(=O)(O)O)OC(=O)NCCCCCCCCCC` [Example 92, ((14R,18R)-18-((decylcarbamoyl)oxy)-14-hexanamido-13,21-dioxo-3,6,9,20-tetraoxa-16-thia-12,22-diazadotriacontyl)phosphonic acid], the Emax at human TLR2 stood at 99%. Moreover, the EC50 at human TLR2 (Hek-TLR2 μM (EC50)) turned out to be 280 nM.

Take “(4R,7S,10R,14R)-4-carbamoyl-7-ethyl-6,9,17-trioxo-10-palmitamido-14-(palmitoyloxy)-16-oxa-12-thia-5,8-diazadotriacontan-1-oic acid [Example 47]”: the “Hek-TLR2 (% Eff)” value on human TLR2 was “(88%)”. At human TLR2 (read-out: Hek-TLR2 μM (EC50)), the EC50 came to 565 nM.

Take “(4R,7S,10R,14R)-10-amino-4-carbamoyl-7-ethyl-6,9,17-trioxo-14-(palmitoyloxy)-16-oxa-12-thia-5,8-diazadotriacontan-1-oic acid [Example 48]”: the “Hek-TLR2 (% Eff)” value at human TLR2 is on record as “(106%)”. For the same molecule, on human TLR2 (read-out: Hek-TLR2 μM (EC50)), the EC50 is 1360 nM.
